From patent US11046696B2, “Fused pyrimidine compound or salt thereof” (TAIHO PHARMACEUTICAL CO., LTD., priority 2016, dated 2021)

Assay: Evaluation of stability in liver microsome
Settings: mouse liver microsome, 1 μM, 37° C. for 30 minutes
Experimental: Solutions of the test compounds in DMSO/acetonitrile (the final concentration of each test compound was 1 μM, the final concentration of DMSO was 0.01%, and the final concentration of acetonitrile was 1%) were individually added to a liver microsome mixture solution (mouse liver microsome with a final concentration of 0.25 mg/mL, a potassium phosphate buffer with a final concentration of 100 mM, and magnesium chloride with a final concentration of 3 mM), and each mixture was pre-incubated at 37° C. for 5 minutes. […] After incubation at 37° C. for 30 minutes, a double amount of ethanol was added thereto to terminate the reaction, thereby obtaining post-reaction samples. A double amount of ethanol was added to each of the remaining mixture solutions, and a NADPH-generating system was further added thereto, thereby obtaining pre-reaction samples. The pre-reaction samples and post-reaction samples were centrifuged at 2000×g, and their supernatant was filtered through a glass filter. Each filtrate was then introduced into LC-MS/MS, and MS/MS peaks of the test compounds were detected. From the ratio of the post-reaction MS/MS peak to the pre-reaction MS/MS peak of the test compounds, the percentage of the remaining test compounds (remaining %) was calculated.

Row | Structure (SMILES) | Remaining (%)
1 | COCc1ccc(NC(=O)c2c(C#Cc3cnc4cccnn34)n(C3(C)CC3)c3ncnc(N)c23)cc1 [Example 91, 4-amino-6-(imidazo[1,2-b]pyridazin-3-ylethynyl)-N-[4-(methoxymethyl)phenyl]-7-(1-methylcyclopropyl)-7H-pyrrolo[2,3-d]pyrimidine-5-carboxamide] | 65%
2 | COCc1ccc(NC(=O)c2c(C#Cc3ccc(Cl)nc3)n(C3(C)CC3)c3ncnc(N)c23)cc1 [Example 120, 4-amino-6-((6-chloropyridin-3-yl)ethynyl)-N-(4-(methoxymethyl)phenyl)-7-(1-methylcyclopropyl)-7H-pyrrolo[2,3-d]pyrimidine-5-carboxamide] | 72%
3 | COCc1ccc(NC(=O)c2c(C#CC(O)C3CC3)n(C3(C)CC3)c3ncnc(N)c23)cc1 (stereo not drawn) [Example 104, 4-amino-6-(3-cyclopropyl-3-hydroxyprop-1-yn-1-yl)-N-(4-(methoxymethyl)phenyl)-7-(1-methylcyclopropyl)-7H-pyrrolo[2,3-d]pyrimidine-5-carboxamide] | 52%
4 | COCc1ccc(NC(=O)c2c(OC[C@@H](C)OC)n(C3(C)CC3)c3ncnc(N)c23)cc1 [Example 96, (R)-4-amino-N-(4-(methoxymethyl)phenyl)-6-(2-methoxypropoxy)-7-(1-methylcyclopropyl)-7H-pyrrolo[2,3-d]pyrimidine-5-carboxamide] | 71%
5 | CCc1c(C(=O)Nc2ccc(COC)cc2)c2c(N)ncnc2n1C1(C)CC1 [Example 207, 4-amino-6-ethyl-N-(4-(methoxymethyl)phenyl)-7-(1-methylcyclopropyl)-7H-pyrrolo[2,3-d]pyrimidine-5-carboxamide] | 72%
6 | COCc1ccc(NC(=O)c2c(C(C)=O)n(C3(C)CC3)c3ncnc(N)c23)cc1 [Example 64, 6-acetyl-4-amino-N-(4-(methoxymethyl)phenyl)-7-(1-methylcyclopropyl)-7H-pyrrolo[2,3-d]pyrimidine-5-carboxamide] | 89%
7 | COCc1ccc(NC(=O)c2c(-c3ccc(CO)cc3)n(C3(C)CC3)c3ncnc(N)c23)cc1 [Example 145, 4-amino-6-(4-(hydroxymethyl)phenyl)-N-(4-(methoxymethyl)phenyl)-7-(1-methylcyclopropyl)-7H-pyrrolo[2,3-d]pyrimidine-5-carboxamide] | 72%
8 | CCn1nccc1C#Cc1c(C(=O)Nc2ccc(COC)cc2)c2c(N)ncnc2n1C1(C)CC1 [Example 114, 4-amino-6-((1-ethyl-1H-pyrazol-5-yl)ethynyl)-N-(4-(methoxymethyl)phenyl)-7-(1-methylcyclopropyl)-7H-pyrrolo[2,3-d]pyrimidine-5-carboxamide] | 55%
9 | COCc1ccc(NC(=O)c2c(C3=CCOCC3)n(C3(C)CC3)c3ncnc(N)c23)cc1 [Example 203, 4-amino-6-(3,6-dihydro-2H-pyran-4-yl)-N-(4-(methoxymethyl)phenyl)-7-(1-methylcyclopropyl)-7H-pyrrolo[2,3-d]pyrimidine-5-carboxamide] | 68%
10 | COCc1ccc(NC(=O)c2c(Br)n(C3(C)CC3)c3ncnc(N)c23)cc1 [Example 55, 4-amino-6-bromo-N-[4-(methoxymethyl)phenyl]-7-(1-methylcyclopropyl)-7H-pyrrolo[2,3-d]pyrimidine-5-carboxamide] | 56%
11 | COCc1ccc(NC(=O)c2c(C#CCN3CCCCC3)n(C3(C)CC3)c3ncnc(N)c23)cc1 [Example 105, 4-amino-N-[4-(methoxymethyl)phenyl]-7-(1-methylcyclopropyl)-6-(3-(piperidin-1-yl)prop-1-yn-1-yl)-7H-pyrrolo[2,3-d]pyrimidine-5-carboxamide] | 52%
12 | COCc1ccc(NC(=O)c2c(C#CC3(O)CCOCC3)n(C3(C)CC3)c3ncnc(N)c23)cc1 [Example 185, 4-amino-6-((4-hydroxytetrahydro-2H-pyran4-yl)ethynyl)-N-(4-(methoxymethyl)phenyl)-7-(1-methylcyclopropyl)-7H-pyrrolo[2,3-d]pyrimidine-5-carboxamide] | 80%
13 | COCc1ccc(NC(=O)c2c(OCC3CCOCC3)n(C3(C)CC3)c3ncnc(N)c23)cc1 [Example 141, 4-amino-N-(4-(methoxymethyl)phenyl)-7-(1-methylcyclopropyl)-6-((tetrahydro-2H-pyran-4-yl)methoxy)-7H-pyrrolo[2,3-d]pyrimidine-5-carboxamide] | 68%
14 | COCc1ccc(NC(=O)c2c(C#Cc3cn(C)nc3C)n(C3(C)CC3)c3ncnc(N)c23)cc1 [Example 181, 4-amino-6-((1,3-dimethyl-1H-pyrazol-4-yl)ethynyl)-N-(4-(methoxymethyl)phenyl)-7-(1-methylcyclopropyl)-7H-pyrrolo[2,3-d]pyrimidine-5-carboxamide] | 62%
15 | COCc1ccc(NC(=O)c2c(C#CCCN3CCOCC3)n(C3(C)CC3)c3ncnc(N)c23)cc1 [Example 187, 4-amino-N-(4-(methoxymethyl)phenyl)-7-(1-methylcyclopropyl)-6-(4-morpholinobut-1-yn-1-yl)-7H-pyrrolo[2,3-d]pyrimidine-5-carboxamide] | 68%
16 | COCc1ccc(NC(=O)c2c(C#CCC3CCOCC3)n(C3(C)CC3)c3ncnc(N)c23)cc1 [Example 152, 4-amino-N-(4-(methoxymethyl)phenyl)-7-(1-methylcyclopropyl)-6-(3-(tetrahydro-2H-pyran-4-yl)prop-1-yn-1-yl)-7H-pyrrolo[2,3-d]pyrimidine-5-carboxamide] | 57%
17 | COCc1ccc(NC(=O)c2c(C#Cc3cncc(C#N)c3)n(C3(C)CC3)c3ncnc(N)c23)cc1 [Example 195, 4-amino-6-((5-cyanopyridin-3-yl)ethynyl)-N-(4-(methoxymethyl)phenyl)-7-(1-methylcyclopropyl)-7H-pyrrolo[2,3-d]pyrimidine-5-carboxamide] | 70%
18 | COCc1ccc(NC(=O)c2c(-c3ccc(CO)nc3)n(C3(C)CC3)c3ncnc(N)c23)cc1 [Example 179, 4-amino-6-(6-(hydroxymethyl)pyridin-3-yl)-N-(4-(methoxymethyl)phenyl)-7-(1-methylcyclopropyl)-7H-pyrrolo[2,3-d]pyrimidine-5-carboxamide] | 85%
19 | COCc1ccc(NC(=O)c2c(-c3cncnc3)n(C3(C)CC3)c3ncnc(N)c23)cc1 [Example 194, 4-amino-N-(4-(methoxymethyl)phenyl)-7-(1-methylcyclopropyl)-6-(pyrimidin-5-yl)-7H-pyrrolo[2,3-d]pyrimidine-5-carboxamide] | 67%
20 | COCc1ccc(NC(=O)c2c(C#Cc3cnc4ccoc4c3)n(C3(C)CC3)c3ncnc(N)c23)cc1 [Example 159, 4-amino-6-(furo[3,2-b]pyridin-6-ylethynyl)-N-(4-(methoxymethyl)phenyl)-7-(1-methylcyclopropyl)-7H-pyrrolo[2,3-d]pyrimidine-5-carboxamide] | 78%
21 | CCOc1c(C(=O)Nc2ccc(COC)cc2)c2c(N)ncnc2n1C1(C)CC1 [Example 127, 4-amino-6-ethoxy-N-(4-(methoxymethyl)phenyl)-7-(1-methylcyclopropyl)-7H-pyrrolo[2,3-d]pyrimidine-5-carboxamide] | 70%
22 | COCc1ccc(NC(=O)c2c(OCC(C)(C)OC)n(C3(C)CC3)c3ncnc(N)c23)cc1 [Example 137, 4-amino-6-(2-methoxy-2-methylpropoxy)-N-(4-(methoxymethyl)phenyl)-7-(1-methylcyclopropyl)-7H-pyrrolo[2,3-d]pyrimidine-5-carboxamide] | 53%
23 | COCc1ccc(NC(=O)c2c(C#CCN3CCOCC3)n(C3(C)CC3)c3ncnc(N)c23)cc1F [Example 206, 4-amino-N-(3-fluoro-4-(methoxymethyl)phenyl)-7-(1-methylcyclopropyl)-6-(3-morpholinoprop-1-yn-1-yl)-7H-pyrrolo[2,3-d]pyrimidine-5-carboxamide] | 77%
24 | COCc1ccc(NC(=O)c2c(OCC(C)OC)n(C3(C)CC3)c3ncnc(N)c23)cc1 (stereo not drawn) [Example 100, 4-amino-N-(4-(methoxymethyl)phenyl)-6-(2-methoxypropoxy)-7-(1-methylcyclopropyl)-7H-pyrrolo[2,3-d]pyrimidine-5-carboxamide] | 76%
25 | COCc1ccc(NC(=O)c2c(C#Cc3ccccc3)n(C3(C)CC3)c3ncnc(N)c23)cc1 [Example 162, 4-amino-N-(4-(methoxymethyl)phenyl)-7-(1-methylcyclopropyl)-6-(phenylethynyl)-7H-pyrrolo[2,3-d]pyrimidine-5-carboxamide] | 76%
26 | COCc1ccc(NC(=O)c2c(C#Cc3ccsc3)n(C3(C)CC3)c3ncnc(N)c23)cc1 [Example 176, 4-amino-N-(4-(methoxymethyl)phenyl)-7-(1-methylcyclopropyl)-6-(thiophen-3-ylethynyl)-7H-pyrrolo[2,3-d]pyrimidine-5-carboxamide] | 70%
27 | COCc1ccc(NC(=O)c2c(C#CCC(C)(C)O)n(C3(C)CC3)c3ncnc(N)c23)cc1 [Example 86, 4-amino-6-(4-hydroxy-4-methylpent-1-yn-1-yl)-N-[4-(methoxymethyl)phenyl]-7-(1-methylcyclopropyl)-7H-pyrrolo[2,3-d]pyrimidine-5-carboxamide] | 66%
28 | [2H]C([2H])([2H])OCc1ccc(NC(=O)c2cn(C(C)(C)C)c3ncnc(N)c23)cc1 [Example 35, 4-amino-7-(tert-butyl)-N-(4-((methoxy-d3)-methyl)phenyl)-7H-pyrrolo[2,3-d]pyrimidine-5-carboxamide] | 58%
29 | COCc1ccc(NC(=O)c2c(C#Cc3cncs3)n(C3(C)CC3)c3ncnc(N)c23)cc1 [Example 193, 4-amino-N-[4-(methoxymethyl)phenyl]-7-(1-methylcyclopropyl)-6-(thiazol-5-ylethynyl)-7H-pyrrolo[2,3-d]pyrimidine-5-carboxamide] | 51%
30 | COCc1ccc(NC(=O)c2c(C#CC3(O)CCOC3)n(C3(C)CC3)c3ncnc(N)c23)cc1 (stereo not drawn) [Example 177, 4-amino-6-((3-hydroxytetrahydrofuran-3-yl)ethynyl)-N-(4-(methoxymethyl)phenyl)-7-(1-methylcyclopropyl)-7H-pyrrolo[2,3-d]pyrimidine-5-carboxamide] | 72%
